{"source": "patent US11376307B2", "about": "“Compositions and methods of treating cancer with glycomimetic peptides” (SUSAVION BIOSCIENCES, INC., priority 2018, dated 2022)", "key": {"peritoneal immune cells": {"tested_on": "peritoneal immune cells", "assay": "Expansion of peritoneal cells after subcutaneous injection, flow cytometry", "type": "in vivo, Balb/c mice", "conditions": "24 h after a single s.c. injection, 1 nmol/g", "method": "Flow Cytometry Healthy C57BL/6 male mice, 10 weeks old, were injected subcutaneously with peptides on alternate days. Peritoneal cells were isolated from mice 24 h after dosing by injecting ice cold PBS (containing 3% FBS) into the peritoneal cavity, gently massaging the abdomen, and then collecting the fluid, which was transferred into K2EDTA-treated tubes for evaluation of specific biomarkers. Cells from three mice in each group were pooled, counted and divided among FACS tubes (1×10^6 cells per tube). […]\nCells were incubated with the antibodies for 30 min at 4° C. in the dark. Following staining, the cells were washed two times with PBS/3% FBS and immediately analyzed with a MACSQuant flow cytometer (Miltenyi Biotech, Inc., San Diego, Calif.). […]\nTo examine whether increases occurred in mature immune cells, peritoneal cells from Balb/c and C57BL/6 mice were analyzed by flow cytometry after cells were stained with the markers listed in Table 1. […] Shown in FIGS. 7A-7D are results expressed as cell counts for F4/80 CD11b CD86 (mature, active macrophages); CD11c (DCs); CD11c CD86 (activated DCs); CD4 CD69 (activated T cells); CD8 CD69 (activated cytotoxic T cells); NK1.1 CD3^+ CD69 (activated NKT cells); NK1.1 CD3^− CD69 (activated NK cells); CD19 (B cells); and CD19 CD73 CD80 CD273 (memory B cells). […]"}, "recombinant rat CLEC10A": {"molecular_target": "T1, recombinant rat CLEC10A (Rattus norvegicus, UniProt P49301)", "T1 construct": "The extracellular domains of receptors, which were fused with the Fc domain of immunoglobulin IgG; purchased R&D Systems", "T1 sequence (P49301 59-306 limits assumed)": "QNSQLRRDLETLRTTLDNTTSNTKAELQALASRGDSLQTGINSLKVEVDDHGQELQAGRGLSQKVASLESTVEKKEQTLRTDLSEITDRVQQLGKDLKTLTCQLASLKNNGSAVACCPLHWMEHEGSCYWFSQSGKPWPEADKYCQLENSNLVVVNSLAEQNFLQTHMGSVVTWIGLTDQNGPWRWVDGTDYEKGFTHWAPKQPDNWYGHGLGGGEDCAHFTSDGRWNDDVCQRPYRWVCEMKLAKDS", "assay": "Inhibition of binding of multivalent GalNAc-PAA", "method": "FIGS. 3A-3D. sv6D as a mimetic of GalNAc. (FIG. 3A) Inhibition by sv6D of binding of multivalent GalNAc-PAA (GlycoTech Corp., Frederick, Md.) to recombinant rat CLEC10A and human ASGPR-1. The reaction mixture included approximately 200 pmoles of biotinylated GalNc-PAA and increasing concentrations of peptide. The figure includes average values from 3 independent experiments. (FIG. 3B) Biotinylated sv6D or GalNAc-PAA were incubated with rabbit antiserum raised against the 6D sequence (NQHTPR) (SEQ ID NO:1) conjugated to keyhole limpet hemocyanin (KLH). Binding was detected with streptavidin-peroxidase conjugate. Similar data were obtained in 2 experiments. (FIG. 3C) Inhibition by EGTA of binding of sv6D (pattern) or svL4 (solid) to CLEC10A and ASGPR-1, respectively. EGTA (1 mM) was added to the final concentrations indicated to assays. Retention of bound CLEC10A was determined by incubation with biotinylated anti-CLEC10A (goat IgG, R&D Systems) and detection with streptavidin-peroxidase conjugate (light grey circle). Similar data were obtained in 3 experiments. (FIG. 3D) Binding of svL4 and sv6D to human recombinant CLEC10A and ASGPR-1 as a function of concentration of peptide in the assay. The figure is representative of 4 separate assays.\nTo further determine whether sv6D interacts with the actual sugar binding site, the ability of sv6D to compete with GalNAc-PAA for binding was assayed."}}, "note": "Positions of bridges follow the written chain, without caps; N, C: chain ends. Chains are numbered I, II in the order given.", "data": [{"substance": "I: H-VQATQSNQHTPRGGGSKK-NH2 / II: H-VQATQSNQHTPRGGGSK / III: H-VQATQSNQHTPRGGGS / IV: H-VQATQSNQHTPRGGGS (amide I:17-IV:C, I:18-II:C, II:17-III:C) [svL4]", "values": [{"measurement": "Change in peritoneal macrophages, DCs, T cells and NK cells", "setting": "peritoneal immune cells", "value": "Several-fold increases"}]}, {"substance": "I: H-NQHTPRGGGSKK-NH2 / II: H-NQHTPRGGGSK / III: H-NQHTPRGGGS / IV: H-NQHTPRGGGS (amide I:11-IV:C, I:12-II:C, II:11-III:C) [sv6D]", "values": [{"measurement": "Inhibition of binding of GalNAc-PAA to CLEC10A", "setting": "recombinant rat CLEC10A; about 200 pmoles biotinylated GalNAc-PAA, increasing peptide", "value": "inhibited"}, {"measurement": "Avidity relative to multivalent GalNAc-PAA", "setting": "recombinant rat CLEC10A; from competition experiment", "value": "over an order of magnitude greater"}]}]}
